# Assay results reported in patent US20250213707A1, “COMPOUND FOR INCREASING EFFICACY OF ONCOLYTIC VIRUSES” (ABLEVIA BIOTECH GMBH, priority 2022, published 2025).
# What was measured:
# [1] = tested on: IgG from human donors (anti-AAV antibodies); experiment: Screen for anti-AAV antibodies in human sera, 2452 linear 15-amino-acid AAV peptides on microarrays (Table 1); assay type: binding; design: key to group I: X: the deduplicated aggregate of the respective top 10 peptide hits for each donor was compiled and designated as group I; key to group II: X: the deduplicated aggregate of the respective top 25 peptide hits for each donor was compiled and designated as group II; key to group III: X: the deduplicated aggregate of the respective top 50 peptide hits for each donor was compiled and designated as group III; details: human donor IgG binding to linear 15-amino-acid AAV peptides on microarray, fluorescence; for group I: membership in deduplicated aggregate of top 10 peptide hits for each donor; for group II: membership in deduplicated aggregate of top 25 peptide hits for each donor; for group III: membership in deduplicated aggregate of top 50 peptide hits for each donor
# How it was run: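 Protein G-purified IgG from human donor blood incubated with microarrays of 2452 linear 15-mer peptides from 16 AAVs; binding read by fluorescence. Background-subtracted signals ranked per donor, with top 10, 25, 50 and 250 hits pooled and deduplicated into groups I-IV.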
# [2] = tested on: mAb 9C12; experiment: Epitope mapping of monoclonal antibody 9C12 against cyclic peptides of the AdV hexon protein (peptide microarray); assay type: binding, mice; details: cyclic 7mer, 10mer, 13mer peptides of AdV hexon
# Experimental: Monoclonal antibody 9C12 (alias mAB TC31-9C12·C9-s) was generated by immunizing mice with the hexon protein (Uniprot ID: P04133 which corresponds to GenBank: BAG48782.1). […] In brief, diluted antibody was incubated with GFP-expressing replication-defective Ad vector and subsequently added to Hela cells followed by fluorescence readout. […] The binding signal of mAb 9C12 to the peptides yielded several candidates that could be aligned and clustered against the protein. An epitopic cluster region of 20 amino acids was identified from which paratope binding peptides can be preferentially derived. Below are the aligments of the corresponding peptide hits from this screen. […] Cyclic peptides were selected out of up to 50 top binders in this experiment.
Sequence,group I [1],group II [1],group III [1],ranked binding signal obtained from the microarray (01 binds strongest) [2]
KRPVDQSPQEPDSS (REGION 1..14: note = peptide derived from viral capsid protein) [SEQ ID NO: 1986],X,X,X,19
FQERLKEDTSFGGN (REGION 1..14: note = peptide derived from viral capsid protein) [SEQ ID NO: 1981],X,X,X,14
WLEDNLSEGIREWW (REGION 1..14: note = peptide derived from viral capsid protein) [SEQ ID NO: 1971],X,X,X,04
GDSESVPDPQPLGE [SEQ ID NO: 1983],X,X,X,16
YFGYSTPWGYFDFN (REGION 1..14: note = peptide derived from viral capsid protein) [SEQ ID NO: 1972],X,X,X,05
KSVNVDFTVDTNGV (REGION 1..14: note = peptide derived from viral capsid protein) [SEQ ID NO: 1987],X,X,X,20
TQYSTGQVSVEIEW (REGION 1..14: note = peptide derived from viral capsid protein) [SEQ ID NO: 1969],X,X,X,02
TQGTQQLLFSQAGP [SEQ ID NO: 1974],X,X,X,07
GNGLDKGEPVNAAD [SEQ ID NO: 1984],X,X,X,17
DSESVPDPQPLGEP (REGION 1..14: note = peptide derived from viral capsid protein) [SEQ ID NO: 1978],X,X,X,11
KKRPVDQSPQEPDS (REGION 1..14: note = peptide derived from viral capsid protein) [SEQ ID NO: 1985],X,X,X,18
DDEEKFFPMHGNLI [SEQ ID NO: 1976],X,X,X,09
DGHFHPSPLMGGFG (REGION 1..14: note = peptide derived from viral capsid protein) [SEQ ID NO: 1977],X,X,X,10
